In patent publication CN113004196A, “N-(苯甲氧基)-2-氯烟酰胺类化合物及其制备方法和应用” (Zhejiang University of Technology ZJUT, priority 2021, dated 2021):

Columns and labels:
[1] = system: bentgrass (Agrostis) seeds [剪股颖(Agrostis)的种子]; assay: Herbicidal activity test, seed germination inhibition in 24-well plate, bentgrass; type: in vivo
[2] = system: lettuce seeds [生菜(Lettuce)种子]; assay: Herbicidal activity test, seed germination inhibition in 24-well plate, lettuce; type: in vivo; conditions: 1 mM

Compound | inhibition of germination of Agrostis seeds ([1]; 33 μM) | inhibition of lettuce seeds [2] | other results
CC(C)(C)c1ccc(CONC(=O)c2cccnc2Cl)cc1 [I-8] | 较好的抑制 | – | inhibition of germination of Agrostis seeds ([1]; 10 μM): 较好的抑制
O=C(NOCc1cnc(Cl)s1)c1cccnc1Cl [I-1] | 较好的抑制 | 一定抑制作用 | –
O=C(NOCc1ccccc1Br)c1cccnc1Cl [I-10] | 较好的抑制 | – | –
O=C(NOCc1ccc(Br)cc1)c1cccnc1Cl [I-5] | – | 一定抑制作用 | –
O=C(NOCc1ccccc1Cl)c1cccnc1Cl [I-14] | – | – | inhibition of germination of Agrostis seeds ([1]; 333 μM): 完全抑制
O=C(NOCc1ccc(Cl)cc1Cl)c1cccnc1Cl [I-2] | – | 一定抑制作用 | –
